Source: EP0983256B1, “TRIPTOLIDE DERIVATIVES USEFUL IN THE TREATMENT OF AUTOIMMUNE DISEASES” (priority 1997, dated 1998)
In brackets after ≈: the same amount, converted by molar mass.

What was measured:
IL-2 production = assay: Interleukin-2 assay (IL-2 production, ELISA); assay type: cell-based, human; settings: cells stimulated with PHA 10 µg/mL and 10^-8 M TPA; incubation 16-24 hours
Procedure: (§1) Jurkat E6-1 cell line (ATCC), a human leukemic T cell line or lymphocytes prepared from fresh human blood, are grown in compiete culture medium consisting of RPMI-1640 (Mediatech) supplemented with 10% v/v fetal bovine serum (HyClone, Logen, Vermont), penicillin (100 units/mL), streptomycin (200 µg/mL), and 2mM L-glutamine (GIBCO, Grand Island, New York). The cells are grown to a concentration of between 1.2 to 1.8 X 10^6 cells/mL before use. The cells are then centrifuged at low speed and resuspended to a concentration of 1.25 X 10^6 cells/mL in fresh medium.
(§2) The compounds to be tested are dissolved in DMSO, and water is added to make a 50% DMSO/water solution. The compounds are then diluted in sterile water such that the DMSO concentrations are less then 0.05%. The cells at a concentration of 1.25 X 10^6 cells/mL are stimulated with phytohemagglutinin 10 µg/mL (PHA) and 10^-8 M phorbol ester (12-O-tetradecanoylphorbol 13-acetate: TPA), (Sigma, St. Louis, Missouri). The compounds are then added and the cells are plated in flat-bottom tissue culture plates (Falcon, Lincoln Park, New Jersey), with 250,000 cells/well. Plates are then incubated at 37°C under an atmosphere of 5% CO2.
(§3) After incubation (16-24 hours), the cells are assayed for IL-2 production and cell viability (MTT). IL-2 production is assayed utilizing a solid phase ELISA immunoassay, sold in kit form by R&D Systems, Inc., Minneapolis, Minnesota.

Jurkat E6-1 cell line = assay: Cell viability (MTT mitochondrial enzyme assay); assay type: cell-based, human; settings: same cells after removal of supernatant for the IL-2 assay; MTT 4 hours, read at 570 nm
Procedure: as §1, §2, §3
Cell viability is measured by the use of a mitochondrial enzyme assay. After removal of the supernatant for the IL-2 assay, Cell Titer 96 (a commercial solution of MTT available from Promega, Madison, Wisconsin) is added to the plates and incubated for 4 hours at 37°C. A solubilization solution is then added and incubated overnight. The plates are then read on an ELISA plate reader at a wavelength of 570 nm. Table II presents the results for the Interleukin-2 assay, the cell viability assay and the ratio of cell viability/IL-2 inhibition.

Compound: CC(C)[C@]1(O)C=C[C@@]2(O)[C@@]3(C)CCC4=C(COC4=O)C3CC[C@@]2(O)[C@@H]1O (stereo partly drawn) [Example 2, [5aR-(5aα,6α,7β,9aα,9bα)]-3b,4,5,5a,6,7,9a,9b,10,11-decahydro-5a,6,7,9a-tetrahydroxy-9b-methyl-7-(1-methylethyl)-phenanthro[1,2-c]furan-1(3H)-one]
- IC50/IL-2 (IL-2 production): 14 ng/mL (≈ 0.0384 µM)
- IC50/MTT (Jurkat E6-1 cell line): 90 ng/mL (≈ 0.247 µM)

Compound: [5R-(5α,5aβ,6β,7α,9aβ,9bβ)]-3b,4,5,5a,6,7,9a,10,11-decahydro-5a,6,9a-trihydroxy-9b-methyl-7-(1-methylethyl)-5,7-epoxyphenanthro[1,2-c]furan-1(3H)-one [Example 3]
- IC50/IL-2 (IL-2 production): 500 ng/mL
- IC50/MTT (Jurkat E6-1 cell line): >>1,000 ng/mL

Compound: [5aS-(5aα,5bα,8β,9α,9aR*,10aβ)]-4,5a,5b,8,9,10a,11,11a-octahydro-5b,8,9-trihydroxy-5a-methyl-8-(1-methylethyl)-1H-oxireno[8a,9]phenanthro[1,2-c]furan-3(5H)-one [Example 1]
- IC50/IL-2 (IL-2 production): 1,000 ng/mL
- IC50/MTT (Jurkat E6-1 cell line): >>1,000 ng/mL
